Assay results reported in the supplement of paper PMC10307832.

Columns and labels:
Test in all cases: relative viability (nuclei count vs DMSO), 5 days (fraction); higher = more cells survive
[1] = tested on: NCI-H2009
Method in brief: (§1)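 Medians of duplicate plates are given as relative viability. That measure is the nuclei count in treated wells divided by the count in vehicle wells. Counts were taken on 4× images of lung cancer cell lines in 1536-well plates, 5 days after pin-tool dosing the day after seeding with one drug alone or a fixed anchor-drug dose plus five library-drug doses (not always all listed) in √10 steps.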

[2] = tested on: PC-14
Method in brief: as §1

[3] = tested on: EKVX
Method in brief: as §1

[4] = tested on: LK-2
Method in brief: as §1

[5] = tested on: HCC-366
Method in brief: as §1

[6] = tested on: NCI-H661
Method in brief: as §1

[7] = tested on: LU99A
Method in brief: as §1

[8] = tested on: NCI-H441
Method in brief: as §1

[9] = tested on: COR-L23
Method in brief: as §1

[10] = tested on: ABC-1
Method in brief: as §1

[11] = tested on: NCI-H1437
Method in brief: as §1

[12] = tested on: HARA
Method in brief: as §1

[13] = tested on: CAL-12T
Method in brief: as §1

[14] = tested on: NCI-H2170
Method in brief: as §1

[15] = tested on: NCI-H838
Method in brief: as §1

[16] = tested on: NCI-H3122
Method in brief: as §1

[17] = tested on: NCI-H727
Method in brief: as §1

[18] = tested on: BEN
Method in brief: as §1

[19] = tested on: NCI-H1666
Method in brief: as §1

[20] = tested on: COR-L 105
Method in brief: as §1

[21] = tested on: 201T
Method in brief: as §1

Oc1nc(-c2ccc(C(F)(F)F)cc2)nc2c1CSCC2 [XAV939] + Cc1nc(NC(=O)N2CCC[C@H]2C(N)=O)sc1-c1ccnc(C(C)(C)C(F)(F)F)c1 [Alpelisib] (partner 2 µM)
relative viability ([1]; first compound 0.08 µM): 1.22
relative viability ([1]; first compound 0.253 µM): 1.2
relative viability ([1]; first compound 0.8 µM): 1.12
relative viability ([1]; first compound 2.53 µM): 0.987
relative viability ([2]; first compound 0.08 µM): 1.03
relative viability ([2]; first compound 0.253 µM): 0.829
relative viability ([2]; first compound 0.8 µM): 0.906
relative viability ([2]; first compound 2.53 µM): 0.796
relative viability ([3]; first compound 0.08 µM): 0.825
relative viability ([3]; first compound 0.253 µM): 0.67
relative viability ([3]; first compound 0.8 µM): 0.731
relative viability ([3]; first compound 2.53 µM): 0.548
relative viability ([4]; first compound 0.08 µM): 1.03
relative viability ([4]; first compound 0.253 µM): 1.02
relative viability ([4]; first compound 0.8 µM): 1.1
relative viability ([4]; first compound 2.53 µM): 0.923
relative viability ([5]; first compound 0.08 µM): 0.535
relative viability ([5]; first compound 0.253 µM): 0.308
relative viability ([5]; first compound 0.8 µM): 0.446
relative viability ([5]; first compound 2.53 µM): 0.389
relative viability ([6]; first compound 0.08 µM): 0.655
relative viability ([6]; first compound 0.253 µM): 0.621
relative viability ([6]; first compound 0.8 µM): 0.833
relative viability ([6]; first compound 2.53 µM): 0.492
relative viability ([7]; first compound 0.08 µM): 0.501
relative viability ([7]; first compound 0.253 µM): 0.579
relative viability ([7]; first compound 0.8 µM): 0.494
relative viability ([7]; first compound 2.53 µM): 0.4
relative viability ([8]; first compound 0.08 µM): 0.687
relative viability ([8]; first compound 0.253 µM): 0.486
relative viability ([8]; first compound 0.8 µM): 0.742
relative viability ([8]; first compound 2.53 µM): 0.657
relative viability ([9]; first compound 0.08 µM): 1
relative viability ([9]; first compound 0.253 µM): 0.73
relative viability ([9]; first compound 0.8 µM): 0.772
relative viability ([9]; first compound 2.53 µM): 0.576
relative viability ([10]; first compound 0.08 µM): 1.14
relative viability ([10]; first compound 0.253 µM): 0.811
relative viability ([10]; first compound 0.8 µM): 0.965
relative viability ([10]; first compound 2.53 µM): 0.428
relative viability ([11]; first compound 0.08 µM): 1.03
relative viability ([11]; first compound 0.253 µM): 0.709
relative viability ([11]; first compound 0.8 µM): 0.97
relative viability ([11]; first compound 2.53 µM): 0.715
relative viability ([12]; first compound 0.08 µM): 1.02
relative viability ([12]; first compound 0.253 µM): 0.643
relative viability ([12]; first compound 0.8 µM): 0.842
relative viability ([12]; first compound 2.53 µM): 0.709
relative viability ([13]; first compound 0.08 µM): 1.42
relative viability ([13]; first compound 0.253 µM): 0.932
relative viability ([13]; first compound 0.8 µM): 1.2
relative viability ([13]; first compound 2.53 µM): 0.73
relative viability ([14]; first compound 0.08 µM): 0.855
relative viability ([14]; first compound 0.253 µM): 0.612
relative viability ([14]; first compound 0.8 µM): 0.654
relative viability ([14]; first compound 2.53 µM): 0.578
relative viability ([15]; first compound 0.08 µM): 1.08
relative viability ([15]; first compound 0.253 µM): 0.849
relative viability ([15]; first compound 0.8 µM): 0.909
relative viability ([15]; first compound 2.53 µM): 0.604
relative viability ([16]; first compound 0.08 µM): 0.812
relative viability ([16]; first compound 0.253 µM): 0.575
relative viability ([16]; first compound 0.8 µM): 0.757
relative viability ([16]; first compound 2.53 µM): 0.358
relative viability ([17]; first compound 0.08 µM): 0.656
relative viability ([17]; first compound 0.253 µM): 0.38
relative viability ([17]; first compound 0.8 µM): 0.626
relative viability ([17]; first compound 2.53 µM): 0.65
relative viability ([18]; first compound 0.08 µM): 1.08
relative viability ([18]; first compound 0.253 µM): 0.921
relative viability ([18]; first compound 0.8 µM): 1.01
relative viability ([19]; first compound 0.08 µM): 0.87
relative viability ([19]; first compound 0.253 µM): 0.63
relative viability ([19]; first compound 0.8 µM): 0.721
relative viability ([19]; first compound 2.53 µM): 0.591
relative viability ([20]; first compound 0.08 µM): 1.14
relative viability ([20]; first compound 0.253 µM): 0.867
relative viability ([20]; first compound 0.8 µM): 0.952
relative viability ([20]; first compound 2.53 µM): 0.576
relative viability ([21]; first compound 0.08 µM): 1
relative viability ([21]; first compound 0.253 µM): 0.875
relative viability ([21]; first compound 0.8 µM): 0.947
relative viability ([21]; first compound 2.53 µM): 0.902

CC1(C)CCC(c2ccc(Cl)cc2)=C(CN2CCN(c3ccc(C(=O)NS(=O)(=O)c4ccc(N[C@H](CCN5CCOCC5)CSc5ccccc5)c(S(=O)(=O)C(F)(F)F)c4)cc3)CC2)C1 [Navitoclax] + Cc1nc(NC(=O)N2CCC[C@H]2C(N)=O)sc1-c1ccnc(C(C)(C)C(F)(F)F)c1 [Alpelisib] (partner 2 µM)
relative viability ([1]; first compound 0.005 µM): 1.08
relative viability ([1]; first compound 0.01581 µM): 1.16
relative viability ([1]; first compound 0.05 µM): 1.15
relative viability ([1]; first compound 0.1581 µM): 1.2
relative viability ([1]; first compound 0.5 µM): 1.21
relative viability ([2]; first compound 0.005 µM): 0.833
relative viability ([2]; first compound 0.01581 µM): 1.02
relative viability ([2]; first compound 0.05 µM): 0.92
relative viability ([2]; first compound 0.1581 µM): 0.926
relative viability ([2]; first compound 0.5 µM): 0.904
relative viability ([3]; first compound 0.005 µM): 0.828
relative viability ([3]; first compound 0.01581 µM): 1.15
relative viability ([3]; first compound 0.05 µM): 0.765
relative viability ([3]; first compound 0.1581 µM): 0.928
relative viability ([3]; first compound 0.5 µM): 0.833
relative viability ([4]; first compound 0.005 µM): 0.919
relative viability ([4]; first compound 0.01581 µM): 1.29
relative viability ([4]; first compound 0.05 µM): 1.12
relative viability ([4]; first compound 0.1581 µM): 0.997
relative viability ([4]; first compound 0.5 µM): 1.08
relative viability ([5]; first compound 0.005 µM): 0.391
relative viability ([5]; first compound 0.01581 µM): 0.588
relative viability ([5]; first compound 0.05 µM): 0.132
relative viability ([5]; first compound 0.1581 µM): 0.338
relative viability ([5]; first compound 0.5 µM): 0.361
relative viability ([6]; first compound 0.005 µM): 0.438
relative viability ([6]; first compound 0.01581 µM): 0.468
relative viability ([6]; first compound 0.05 µM): 0.479
relative viability ([6]; first compound 0.1581 µM): 0.465
relative viability ([6]; first compound 0.5 µM): 0.673
relative viability ([7]; first compound 0.005 µM): 0.5
relative viability ([7]; first compound 0.01581 µM): 0.573
relative viability ([7]; first compound 0.05 µM): 0.406
relative viability ([7]; first compound 0.1581 µM): 0.526
relative viability ([7]; first compound 0.5 µM): 0.473
relative viability ([8]; first compound 0.005 µM): 0.654
relative viability ([8]; first compound 0.01581 µM): 0.901
relative viability ([8]; first compound 0.05 µM): 0.852
relative viability ([8]; first compound 0.1581 µM): 0.743
relative viability ([8]; first compound 0.5 µM): 0.63
relative viability ([9]; first compound 0.005 µM): 0.67
relative viability ([9]; first compound 0.01581 µM): 0.807
relative viability ([9]; first compound 0.05 µM): 0.697
relative viability ([9]; first compound 0.1581 µM): 0.7
relative viability ([9]; first compound 0.5 µM): 0.855
relative viability ([10]; first compound 0.005 µM): 1.14
relative viability ([10]; first compound 0.01581 µM): 1.39
relative viability ([10]; first compound 0.05 µM): 1.04
relative viability ([10]; first compound 0.1581 µM): 0.899
relative viability ([10]; first compound 0.5 µM): 1.01
relative viability ([11]; first compound 0.005 µM): 0.885
relative viability ([11]; first compound 0.01581 µM): 1.04
relative viability ([11]; first compound 0.05 µM): 0.98
relative viability ([11]; first compound 0.1581 µM): 1.05
relative viability ([11]; first compound 0.5 µM): 0.871
relative viability ([12]; first compound 0.005 µM): 0.657
relative viability ([12]; first compound 0.01581 µM): 1.05
relative viability ([12]; first compound 0.05 µM): 0.622
relative viability ([12]; first compound 0.1581 µM): 0.881
relative viability ([12]; first compound 0.5 µM): 0.898
relative viability ([13]; first compound 0.005 µM): 1.08
relative viability ([13]; first compound 0.01581 µM): 1.28
relative viability ([13]; first compound 0.05 µM): 1.31
relative viability ([13]; first compound 0.1581 µM): 1.25
relative viability ([13]; first compound 0.5 µM): 1.11
relative viability ([14]; first compound 0.005 µM): 0.785
relative viability ([14]; first compound 0.01581 µM): 0.872
relative viability ([14]; first compound 0.05 µM): 0.927
relative viability ([14]; first compound 0.1581 µM): 0.8
relative viability ([14]; first compound 0.5 µM): 0.583
relative viability ([15]; first compound 0.005 µM): 0.96
relative viability ([15]; first compound 0.01581 µM): 1.1
relative viability ([15]; first compound 0.05 µM): 1.12
relative viability ([15]; first compound 0.1581 µM): 1.03
relative viability ([15]; first compound 0.5 µM): 1.03
relative viability ([16]; first compound 0.005 µM): 0.686
relative viability ([16]; first compound 0.01581 µM): 0.8
relative viability ([16]; first compound 0.05 µM): 0.726
relative viability ([16]; first compound 0.1581 µM): 0.901
relative viability ([16]; first compound 0.5 µM): 0.766
relative viability ([17]; first compound 0.005 µM): 0.5
relative viability ([17]; first compound 0.01581 µM): 0.619
relative viability ([17]; first compound 0.1581 µM): 0.526
relative viability ([17]; first compound 0.5 µM): 0.434
relative viability ([18]; first compound 0.005 µM): 0.983
relative viability ([18]; first compound 0.01581 µM): 1.13
relative viability ([18]; first compound 0.05 µM): 1.02
relative viability ([18]; first compound 0.1581 µM): 1.08
relative viability ([18]; first compound 0.5 µM): 0.831
relative viability ([19]; first compound 0.005 µM): 1.03
relative viability ([19]; first compound 0.01581 µM): 0.944
relative viability ([19]; first compound 0.05 µM): 1.06
relative viability ([19]; first compound 0.1581 µM): 0.878
relative viability ([19]; first compound 0.5 µM): 0.958
relative viability ([20]; first compound 0.005 µM): 0.878
relative viability ([20]; first compound 0.01581 µM): 1.22
relative viability ([20]; first compound 0.05 µM): 0.989
relative viability ([20]; first compound 0.1581 µM): 1.07
relative viability ([20]; first compound 0.5 µM): 0.978
relative viability ([21]; first compound 0.005 µM): 1.03
relative viability ([21]; first compound 0.01581 µM): 1.04
relative viability ([21]; first compound 0.05 µM): 1.02
relative viability ([21]; first compound 0.1581 µM): 1
relative viability ([21]; first compound 0.5 µM): 1.03
